pIC50: −log10 of the molar value.
Experiments:
PTPN2 = molecular target: T1, PTPN2 (Homo sapiens, UniProt P17706); experiment: Phosphatase activity assay (DiFMUP substrate); format: biochemical; settings: value bin printed in column head
T1 sequence (P17706 1-415): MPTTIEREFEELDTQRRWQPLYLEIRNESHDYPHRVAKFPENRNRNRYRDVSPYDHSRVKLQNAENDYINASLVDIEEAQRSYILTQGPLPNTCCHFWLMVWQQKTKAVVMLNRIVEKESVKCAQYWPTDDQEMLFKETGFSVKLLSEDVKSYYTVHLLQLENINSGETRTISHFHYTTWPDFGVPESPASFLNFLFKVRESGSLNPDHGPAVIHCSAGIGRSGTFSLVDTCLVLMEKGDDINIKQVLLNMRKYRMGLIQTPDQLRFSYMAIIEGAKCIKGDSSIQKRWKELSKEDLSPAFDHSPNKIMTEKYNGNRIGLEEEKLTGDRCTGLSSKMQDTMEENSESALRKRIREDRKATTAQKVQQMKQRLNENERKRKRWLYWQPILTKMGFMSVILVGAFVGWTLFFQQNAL
Description: (§1) The selectivity and potency of a small molecule PTPN2 inhibitor as provided herein against one or more protein tyrosine phosphatase (PTP) enzymes, and specifically against PTPN2, is assessed in various ways. The one or more PTP enzymes comprise Mycobacterium protein tyrosine phosphatase A (mPTPA), Mycobacterium protein tyrosine phosphatase B (mPTPB), PTPN1 (i.e., PTP1B), PTPN2 (i.e., TC-PTP), PTPN22 (i.e., LYP), SHP-1, SHP-2, FAP-1, Meg2, HePTP, Laforin, VHX, VHR, LMWPTP, Cdc14A, LAR, CD45, PTPRG, a fragment thereof, a variant thereof, and a combination thereof. Selectivity and potency of a small molecule PTPN2 inhibitor is evaluated using a PTP activity inhibition assay. The assay is performed using a buffer comprising 50 mM HEPES buffer pH 7.5, 150 mM NaCl, 0.5 mM EDTA, 1 mM DTT, 0.001% Tween-20.
(§2) The assay is performed using a phosphated substrate, e.g., 10 mM 6,8-Difluoro-4-Methylumbelliferyl Phosphate (DIFMUP) that is stored at −20° C. Alternatively or in addition to, the assay is performed using other phosphated substrate (e.g., fluorescein diphosphate). Each PTP enzyme is diluted in the assay buffer
(§3) The assay can be carried out at room temperature in multiplate format, e.g., using 384 well plates. A small molecule PTPN2 inhibitor dissolved in DMSO at one of 10 concentrations from a serial dilution or DMSO alone for control is added to each well. A mixture of the assay buffer comprising PTP enzyme (e.g., 0.025 ng/ul PTPN2) is added to each well and mixed for approximately 2 minutes. The reaction is initiated by adding DiFMUP diluted in the assay buffer to a final concentration of approximately 45 µM DiFMUP in PTPN2 assay. For each PTP enzyme, DiFMUP is added at the Km (Michaelis constant) of the enzyme that had been independently determined. The phosphatase activity of the PTP enzyme is assessed by monitoring appearance of a fluorescent product (6,8-difluoro-7-hydroxyl-4-coumarin (DiFMU) from DiFMUP) continuously for about 15 to 30 minutes, using the INFINITE M1000Pro plate reader (Tecan) with excitation at 360 nm and emission at 450 nm (cutoff filter at 435 nm) for DiFMU. Each assay is performed at least in duplicate. The rate (e.g., the initial rate) of DiFMU formation is plotted against the concentration of the small molecule PTPN2 inhibitor, and the data is fitted (e.g., using a 4-parameter equation) to determine the inflection point of the fit as the IC50 of the small molecule PTPN2 inhibitor for a specific enzyme. Utilizing this assay, the ability of the compounds in Table 1 to inhibit PTPN2 and PTP1B has been assessed. Table 3 summarizes the IC50 values.

PTP1B = molecular target: T2, PTP1B (Homo sapiens, UniProt P18031); experiment: Phosphatase activity assay (DiFMUP substrate); format: biochemical; settings: value bin printed in column head
T2 sequence (P18031 1-435): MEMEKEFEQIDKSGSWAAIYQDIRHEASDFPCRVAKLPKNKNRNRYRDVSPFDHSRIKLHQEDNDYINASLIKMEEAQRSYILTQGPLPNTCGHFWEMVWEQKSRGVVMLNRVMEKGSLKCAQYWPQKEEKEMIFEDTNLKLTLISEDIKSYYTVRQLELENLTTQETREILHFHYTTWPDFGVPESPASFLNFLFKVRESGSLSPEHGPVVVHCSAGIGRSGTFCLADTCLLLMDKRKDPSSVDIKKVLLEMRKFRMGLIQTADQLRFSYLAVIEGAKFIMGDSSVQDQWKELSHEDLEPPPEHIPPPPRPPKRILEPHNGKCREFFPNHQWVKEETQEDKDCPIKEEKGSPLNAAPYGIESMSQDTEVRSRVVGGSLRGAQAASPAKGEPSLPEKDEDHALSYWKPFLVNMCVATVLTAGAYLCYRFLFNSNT
Description: as §1, §2, §3

Row | SMILES | pIC50 (PTPN2) | pIC50 (PTP1B)
1 | CC(OC(=O)C(C)C)OC(=O)N1CC(c2ccc(O)c(N3CC(=O)NS3(=O)=O)c2F)=C[C@H]1CCC1CC1 (mixture of isomers) [Compound 111, 1-(isobutyryloxy)ethyl (2R)-2-(2-cyclopropylethyl)-4-(3-(1,1-dioxido-4-oxo-1,2,5-thiadiazolidin-2-yl)-2-fluoro-4-hydroxyphenyl)-2,5-dihydro-1H-pyrrole-1-carboxylate] | ≥ 6.00 | ≥ 6.00
2 | O=C1CN(c2c(O)ccc(C3=CC(CCC4CCC4)NC3)c2F)S(=O)(=O)N1 (racemic) [Compound 106, 5-(3-(5-(2-cyclobutylethyl)-2,5-dihydro-1H-pyrrol-3-yl)-2-fluoro-6-hydroxyphenyl)-1,2,5-thiadiazolidin-3-one 1,1-dioxide] | ≥ 6.00 | ≥ 6.00
3 | O=C1CN(c2c(O)ccc(C3=C[C@@H](C=CC4CC4)NC3)c2F)S(=O)(=O)N1 (single isomer, unassigned) [Compound 102, (R,E)-5-(3-(5-(2-cyclopropylvinyl)-2,5-dihydro-1H-pyrrol-3-yl)-2-fluoro-6-hydroxyphenyl)-1,2,5-thiadiazolidin-3-one 1,1-dioxide or (R,Z)-5-(3-(5-(2-cyclopropylvinyl)-2,5-dihydro-1H-pyrrol-3-yl)-2-fluoro-6-hydroxyphenyl)-1,2,5-thiadiazolidin-3-one 1,1-dioxide] | ≥ 6.00 | ≥ 6.00
4 | O=C1CN(c2c(O)ccc(C3=CC(CCC4CCCC4)NC3)c2F)S(=O)(=O)N1 (stereo not shown) [Compound 101, 5-(3-(5-(2-cyclopentylethyl)-2,5-dihydro-1H-pyrrol-3-yl)-2-fluoro-6-hydroxyphenyl)-1,2,5-thiadiazolidin-3-one 1,1-dioxide] | ≥ 6.00 | ≥ 6.00
5 | O=C1CN(c2c(O)ccc(CC3CNC3)c2F)S(=O)(=O)N1 [Compound 103, 5-(3-(azetidin-3-ylmethyl)-2-fluoro-6-hydroxyphenyl)-1,2,5-thiadiazolidin-3-one 1,1-dioxide] | ≥ 6.00 | ≥ 6.00
6 | O=C1CN(c2c(O)cc(C3=CC(CCC4CC4)NC3)cc2F)S(=O)(=O)N1 (stereo not shown) [Compound 105, 5-(4-(5-(2-cyclopropylethyl)-2,5-dihydro-1H-pyrrol-3-yl)-2-fluoro-6-hydroxyphenyl)-1,2,5-thiadiazolidin-3-one 1,1-dioxide] | ≥ 6.00 | ≥ 6.00
7 | CC1(C2C=C(c3ccc(O)c(N4CC(=O)NS4(=O)=O)c3F)CN2)CC1 (stereo not shown) [Compound 108, 5-(2-fluoro-6-hydroxy-3-(5-(1-methylcyclopropyl)-2,5-dihydro-1H-pyrrol-3-yl)phenyl)-1,2,5-thiadiazolidin-3-one 1,1-dioxide] | ≥ 6.00 | < 6.00
8 | O=C1CN(c2c(O)ccc(C3=CC(C4CC4)NC3)c2F)S(=O)(=O)N1 (stereo not shown) [Compound 109, 5-(3-(5-cyclopropyl-2,5-dihydro-1H-pyrrol-3-yl)-2-fluoro-6-hydroxyphenyl)-1,2,5-thiadiazolidin-3-one 1,1-dioxide] | ≥ 6.00 | ≥ 6.00
9 | NC1CCCC1c1ccc(O)c(N2CC(=O)NS2(=O)=O)c1F (stereo not shown) [Compound 112, 5-(3-(2-aminocyclopentyl)-2-fluoro-6-hydroxyphenyl)-1,2,5-thiadiazolidin-3-one 1,1-dioxide] | < 6.00 | < 6.00
10 | CC1(C)CC1CCC1C=C(c2ccc(O)c(N3CC(=O)NS3(=O)=O)c2F)CN1 (stereo not shown) [Compound 115, 5-(3-(5-(2-(2,2-dimethylcyclopropyl)ethyl)-2,5-dihydro-1H-pyrrol-3-yl)-2-fluoro-6-hydroxyphenyl)-1,2,5-thiadiazolidin-3-one 1,1-dioxide] | ≥ 6.00 | ≥ 6.00
11 | CC1CC1C1C=C(c2ccc(O)c(N3CC(=O)NS3(=O)=O)c2F)CN1 (stereo not shown) [Compound 117, 5-(2-fluoro-6-hydroxy-3-(5-(2-methylcyclopropyl)-2,5-dihydro-1H-pyrrol-3-yl)phenyl)-1,2,5-thiadiazolidin-3-one 1,1-dioxide] | ≥ 6.00 | ≥ 6.00
12 | CC1=C(c2ccc(O)c(N3CC(=O)NS3(=O)=O)c2F)CNC1C (stereo not shown) [Compound 118, 5-(3-(4,5-dimethyl-2,5-dihydro-1H-pyrrol-3-yl)-2-fluoro-6-hydroxyphenyl)-1,2,5-thiadiazolidin-3-one 1,1-dioxide] | < 6.00 | < 6.00

Other lines, results leading:

Row | pIC50 (PTPN2) | pIC50 (PTP1B) | SMILES
13 | ≥ 6.00 | ≥ 6.00 | CC1(CCC2C=C(c3ccc(O)c(N4CC(=O)NS4(=O)=O)c3F)CN2)CC1 (stereo not shown) [Compound 104, 5-(2-fluoro-6-hydroxy-3-(5-(2-(1-methylcyclopropyl)ethyl)-2,5-dihydro-1H-pyrrol-3-yl)phenyl)-1,2,5-thiadiazolidin-3-one 1,1-dioxide]
14 | ≥ 6.00 | ≥ 6.00 | N#CCC1C=C(c2ccc(O)c(N3CC(=O)NS3(=O)=O)c2F)CN1 (stereo not shown) [Compound 107, 2-(4-(3-(1,1-dioxido-4-oxo-1,2,5-thiadiazolidin-2-yl)-2-fluoro-4-hydroxyphenyl)-2,5-dihydro-1H-pyrrol-2-yl)acetonitrile]
15 | ≥ 6.00 | ≥ 6.00 | CC(C)(C)CC[C@@H]1C=C(c2ccc(O)c(N3CC(=O)NS3(=O)=O)c2F)CN1 [Compound 110, (R)-5-(3-(5-(3,3-dimethylbutyl)-2,5-dihydro-1H-pyrrol-3-yl)-2-fluoro-6-hydroxyphenyl)-1,2,5-thiadiazolidin-3-one 1,1-dioxide]
16 | ≥ 6.00 | ≥ 6.00 | O=C1CN(c2c(O)ccc(C3=C[C@@H](CCC4CC4)NC3)c2F)S(=O)(=O)N1 [Compound 113, (R)-5-(3-(5-(2-cyclopropylethyl)-2,5-dihydro-1H-pyrrol-3-yl)-2-fluoro-6-hydroxyphenyl)-1,2,5-thiadiazolidin-3-one 1,1-dioxide]
17 | ≥ 6.00 | ≥ 6.00 | CCC[C@@H]1C=C(c2ccc(O)c(N3CC(=O)NS3(=O)=O)c2F)CN1 [Compound 114, (R)-5-(2-fluoro-6-hydroxy-3-(5-propyl-2,5-dihydro-1H-pyrrol-3-yl)phenyl)-1,2,5-thiadiazolidin-3-one 1,1-dioxide]
18 | ≥ 6.00 | ≥ 6.00 | O=C1CN(c2c(O)ccc(C3=C[C@@H](CCC4CCC4)NC3)c2F)S(=O)(=O)N1 [Compound 116, (R)-5-(3-(5-(2-cyclobutylethyl)-2,5-dihydro-1H-pyrrol-3-yl)-2-fluoro-6-hydroxyphenyl)-1,2,5-thiadiazolidin-3-one 1,1-dioxide]
19 | ≥ 6.00 | ≥ 6.00 | N#CCCCC1C=C(c2ccc(O)c(N3CC(=O)NS3(=O)=O)c2F)CN1 (stereo not shown) [Compound 119, 4-(4-(3-(1,1-dioxido-4-oxo-1,2,5-thiadiazolidin-2-yl)-2-fluoro-4-hydroxyphenyl)-2,5-dihydro-1H-pyrrol-2-yl)butanenitrile]
20 | ≥ 6.00 | ≥ 6.00 | CC(C)(C)CC[C@H]1C=C(c2ccc(O)c(N3CC(=O)NS3(=O)=O)c2F)CN1 [Compound 120, (S)-5-(3-(5-(3,3-dimethylbutyl)-2,5-dihydro-1H-pyrrol-3-yl)-2-fluoro-6-hydroxyphenyl)-1,2,5-thiadiazolidin-3-one 1,1-dioxide]
